We go through 1 substance from patent US9492470B2, “Use of HMGA-targeted phosphorothioate DNA aptamers to suppress carcinogenic activity and increase sensitivity to chemotherapy agents in human cancer cells” (MIAMI UNIVERSITY, priority 2012, dated 2016).

Read-outs that look alike come from different tables or passages of the source. In the oligonucleotide strings, read from the 5' end, every base follows the letter of its sugar. An asterisk marks phosphorothioate; unmarked linkages are phosphodiester. Other units and linkages are bracketed, terminal groups are in braces. A string of capitals states the bases alone. d = 2'-deoxy (DNA)

In data set [1] the test system is Miapaca-2 cells. Put plainly: Cell viability (crystal violet) after sDNA transfection, Miapaca-2. In kind it is cell-based, Human. The settings on record: for cells dead compared to UT: versus untransfected (UT) cells. The procedure:
The absorbance was measured at 570 nm in quadruplicate. All data from control cells were combined and averaged.

Data set [2] concerns Miapaca-2 cells. Put plainly: Cell growth with gemcitabine treatment after sDNA transfection, Miapaca-2. It is filed as cell-based, Human. Particulars: Miapaca-2, 0.1 ug sDNA, Gemcitabine 1 nM, 96 hours.
Data set [3] deals with Miapaca-2 cells. The description is as above. The settings on record: 96 hours; for Fold change in numbers of viable cells normalized relative to TC: Miapaca-2, 0.1 ug sDNA. It is filed as cell-based, Human. The procedure: (§1) Cells were fixed after 96 hours and numbers of viable cells counted by measuring the absorbance at 570 nm.
(§2) Cells were transfected with 0.1 μg of TC-sDNA, Mix-sDNA, CG-sDNA, and AT-sDNA.

For data set [4], the system named is AsPC-1 cells. The settings on record: for cells dead compared to UT: versus untransfected (UT) cells.
Experimental: AsPC-1 cells were grown in Roswell Park Memorial Institute medium supplemented with 10% FBS, and 1% penicillin-streptomycin.
Transfections using sDNA at concentrations of 0.1 and 0.25 μg per well were conducted with 5×10^4 and 1×10^5 Miapaca-2 and AsPC-1 cells, respectively, in 24-well plates and all data were collected in quadruplicate. Miapaca-2 and AsPC-1 cells were transfected with sDNA using Lipofectamine 2000 (Invitrogen,™ Life Technologies Corporation, Carlsbad, Calif.) according to the manufacturer's protocol.
Briefly, AsPC-1 cells grown in 10% FBS containing RPIM medium were trypsinized using a trypsin-EDTA solution commercially available from the Sigma-Aldrich, and used to seed fresh media in a 24-well plate with 10^5 cells per well.
After 48 hours, the cells were transfected with the selected sDNA using Lipofectamine 2000 (Invitrogen,™ Life Technologies Corporation, Carlsbad, Calif.) according to the manufacturer's protocol. […] The cells were then fixed with 4% paraformaldehyde in PBS for 20 minutes and stained in 0.1% crystal violet stain (Sigma-Aldrich) for 30 minutes. The cells were washed under running tap water, air dried, and extracted with 0.2% Triton™ X-100 for 30 minutes. […] The absorbance of the Triton X-100 was measured at 570 nm using a HTS microplate reader. All results were analyzed for statistical significance using a student's unpaired t-test.
Data set [5] has as its system AsPC-1 cells. Put plainly: Cell growth with gemcitabine treatment after sDNA transfection, AsPC-1. It is filed as cell-based, Human. Particulars: AsPC-1, 0.1 ug sDNA, 96 hours. The procedure:
as §1, §2

Setting [6] is: Miapaca-2, 0.1 μg sDNA, 96 h after transfection.
[7] abbreviates: AsPC-1, 0.1 μg sDNA, 96 h after transfection.

For “Mix-sDNA: random phosphorothioate DNA (SEQ ID NO: 13), control lacking a HMGA-specific binding sequence (DNA dC*dC*dC*dA*dC*dT*dG*dC*dA*dG*dT*dC*dG*dG*dA*dC*dT*dC*dA*dC*dT*dC*dG*dC)”, the “cells dead compared to UT” value was 30.4% in data set [1] (Miapaca-2, 0.1 ug sDNA, 48 hrs); 33.3% in data set [1] (Miapaca-2, 0.1 ug sDNA, 96 hrs); 28.0% in data set [4] (AsPC-1, 0.1 ug sDNA, 48 hrs); 19.4% in data set [4] (AsPC-1, 0.1 ug sDNA, 96 hrs). Also, the “Fold change in numbers of viable cells between TC and sDNA transfected cells (in parentheses)” value in data set [1] (setting [6]) is listed as “(1.07) fold”; in data set [4] (setting [7]) it was “(−1.14) fold”. Moreover, the “Fold change in numbers of viable cells between UT and transfected cells” value in data set [1] (setting [6]) is reported as −1.45 fold; in data set [4] (setting [7]), −1.24 fold. In addition, the “difference in cell viability between TC cells and sDNA transfected cells” value in data set [1] (Miapaca-2, 0.1 ug sDNA, both 48 and 96 hours) was “no significant differences”; in data set [4] (AsPC-1, 0.1 ug sDNA, both 48 and 96 hours), “no significant differences”. For the same substance, the “Fold change in numbers of viable cells normalized relative to TC” value is 1.12 fold in data set [2]; 1.07 fold in data set [3] (Gemcitabine 0 nM); 1.01 fold in data set [3] (Gemcitabine 10 nM); −2.65 fold in data set [3] (Gemcitabine 30 nM); −4.41 fold in data set [3] (Gemcitabine 100 nM); −4.48 fold in data set [3] (Gemcitabine 1000 nM). The “Fold change in numbers of viable cells normalized relative to TC” value is given as −1.14 fold in data set [5] (Gemcitabine 0 nM); −1.06 fold in data set [5] (Gemcitabine 1 nM); −1.16 fold in data set [5] (Gemcitabine 10 nM); −1.17 fold in data set [5] (Gemcitabine 30 nM); −1.36 fold in data set [5] (Gemcitabine 100 nM); −1.59 fold in data set [5] (Gemcitabine 1000 nM). Also, the “cells dead / change in cell viability” value in data set [3] (Miapaca-2, 0.1 μg sDNA, 1 nM gemcitabine) is “no significant change”. Moreover, in data set [3] (Miapaca-2, 0.1 μg sDNA, 10 nM gemcitabine, normalized to 0 nM gemcitabine), the cells surviving worked out at 94.5%.
